Tests used:
[1] = target: T1, recombinant human 5-HT2A receptor (Homo sapiens, UniProt P28223); assay: Radioligand binding, [3H]Ketanserin competition, 5-HT2A; settings: [3H]Ketanserin displacement, membranes of CHO-K1 cells, pH 7.4, 32° C.; read-out: pKi for 5-HT2A (converted)
T1 construct: expressed in transfected cells; membranes)
Description: (§1) The binding activity of compounds of this invention in vitro was determined as follows. Duplicate determinations of 5-HT6 ligand affinity were made by competing for binding of [^3H]LSD in cell membranes derived from HEK293 cells stably expressing recombinant human 5-HT6 receptor. Duplicate determinations of 5-HT2A ligand affinity were made by competing for binding of [^3H]Ketanserin (3-(2-(4-(4-fluorobenzoyl)piperidinol)ethyl)-2,4(1H,3H)-quinazolinedione) in cell membranes derived from CHO-K1 cells stably expressing recombinant human 5-HT2A receptor. Membranes were prepared from HEK 293 cell lines by the method described by Monsma et al., Molecular Pharmacology, Vol. 43 pp. 320-327 (1993), and from CHO-K1 cell lines as described by Bonhaus et al., Br J Pharmacol. Jun; 115 (4):622-8 (1995).
(§2) For estimation of affinity at the 5-HT6 receptor, all determinations were made in assay buffer containing 50 mM Tris-HCl, 10 mM MgSO4, 0.5 mM EDTA, 1 mM ascorbic acid, pH 7.4 at 37° C., in a 250 microliter reaction volume. […]
(§3) Assay tubes containing [^3H] […] LSD or [^3H]Ketanserin were determined as radioactive counts per minute using Packard TopCount.
(§4) Displacement of [^3H]LSD or [^3H]Ketanserin from the binding sites was quantified by fitting concentration-binding data to a 4-parameter logistic equation: […]

[2] = target: T2, recombinant human 5-HT6 receptor (Homo sapiens, UniProt P50406); assay: Radioligand binding, [3H]LSD competition, 5-HT6; settings: [3H]LSD displacement, membranes of HEK293 cells, pH 7.4, 37° C.; read-out: pKi for 5-HT6 (converted)
T2 construct: expressed in transfected cells; membranes)
T2 sequence (P50406 whole entry): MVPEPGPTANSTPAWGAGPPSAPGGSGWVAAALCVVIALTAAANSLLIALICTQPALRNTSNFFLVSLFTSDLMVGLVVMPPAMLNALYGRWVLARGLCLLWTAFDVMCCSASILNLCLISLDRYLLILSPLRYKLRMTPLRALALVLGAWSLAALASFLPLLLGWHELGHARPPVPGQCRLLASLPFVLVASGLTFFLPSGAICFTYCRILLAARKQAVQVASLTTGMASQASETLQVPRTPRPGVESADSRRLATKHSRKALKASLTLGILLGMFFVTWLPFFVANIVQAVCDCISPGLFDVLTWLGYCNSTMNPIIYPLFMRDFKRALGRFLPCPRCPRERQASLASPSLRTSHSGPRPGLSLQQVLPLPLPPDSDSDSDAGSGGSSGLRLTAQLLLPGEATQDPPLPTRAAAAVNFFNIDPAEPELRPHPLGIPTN
Description: as §1, §2, §3, §4

T1 sequence (P28223 whole entry): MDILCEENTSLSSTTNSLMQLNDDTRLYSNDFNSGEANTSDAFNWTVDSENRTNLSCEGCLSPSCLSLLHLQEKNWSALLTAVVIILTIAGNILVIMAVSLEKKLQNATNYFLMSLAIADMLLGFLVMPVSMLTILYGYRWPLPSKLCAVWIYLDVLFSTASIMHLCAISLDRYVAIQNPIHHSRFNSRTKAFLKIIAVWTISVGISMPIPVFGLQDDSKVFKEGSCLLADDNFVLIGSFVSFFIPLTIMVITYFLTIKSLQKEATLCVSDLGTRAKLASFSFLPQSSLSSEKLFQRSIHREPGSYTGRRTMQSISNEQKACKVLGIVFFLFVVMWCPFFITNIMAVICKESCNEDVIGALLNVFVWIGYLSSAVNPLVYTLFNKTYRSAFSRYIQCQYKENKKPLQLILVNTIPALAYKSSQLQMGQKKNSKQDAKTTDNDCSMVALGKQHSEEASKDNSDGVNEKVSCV

Ki [1]: ~17.4 nM | Ki [2]: ~0.302 nM
SMILES: CN1CCN(C2CCCc3cc(S(=O)(=O)c4ccccc4)ccc32)CC1 (centres unmarked) [Compound 11, 1-(6-Benzenesulfonyl-1,2,3,4-tetrahydro-naphthalen-1-yl)-4-methyl-piperazine]
